Values joined by “and” are separate entries in the source; they are usually repeats but may differ in a detail not shown here. Equal values may be shown once. “Also recorded” adds a separate entry of the source. Read-outs that look alike come from different tables or passages of the source.
Key:
[1] = Brain and plasma concentrations in mice after intraperitoneal administration (LC-MS-MS), non-compartmental analysis; assay type: in vivo; details: for [drug],plasma (free base equivalent): listed as GNTI.2HCl.H2O; for [drug],plasma (free base equivalent) / concentration at 0.5 h / concentration at 1 h / concentration at 2 h / concentration at 4 h / concentration at 24 h / AUC(0-inf) / CL/F / Vd/F: 10 mg/kg
Description: Doses are reported by weight of the specified salt. […] Body mass was measured to ±0.1 g.
Mice were sacrificed by cervical dislocation, then decapitated for collection of brain and blood samples. Trunk blood was collected in 1.5 mL polypropylene micro-centrifuge tubes, shaken with a few crystals of EDTA and cooled in ice-water. Samples were centrifuged at 14,000 rpm (revolutions per minute) for 15 minutes at 3 °C, then stored in glass sample vials at −20 °C until analysis. Brains were removed and immersed for 30 seconds in 2-methylbutane over dry ice, then stored in polypropylene tubes at −20 °C until sample preparation. Sample tubes were thawed in ice-water, distilled water was added (2:1 by weight) and the brain homogenized with a probe sonicator for 3 minutes over ice-water (Fisher Sonic Dismembrator 300 at 35% power). The probe was rinsed with ethanol and distilled water between samples. Brain homogenate was stored in glass sample vials at −20 °C until analysis by LC-MS-MS.
Drug concentrations (ng mL^-1) refer to the free base, and were measured by liquid chromatography-tandem mass spectrometry (LC-MS-MS) as described previously. Briefly, samples were shaken with 3 volumes of methanol and centrifuged at 3000 g. Aliquots of the supernatants were diluted with 5 volumes of water containing an appropriate internal standard. Extracts from in vitro and in vivo experiments were analyzed by multiple reaction monitoring on an API3000 or API4000 LC-MS-MS system with electrospray ion source, controlled and analyzed using the Analyst software package (Applied Biosystems, Foster City, CA). Chromatography was conducted on a Sprite Armor C18 analytical column (20 × 2.1 mm, 10 μm particle size, Analytical Sales and Products, Pompton Plains, NJ) with a 0.5 μm PEEK guard filter. Compounds were eluted with a gradient from 2% to 95% acetonitrile in water, both containing 0.1% formic acid. Compounds were detected in positive ion mode, tuned to the mass transition with the largest intensity. Analyte concentrations were determined by comparison of analyte:internal standard peak area ratios to those of standards prepared in the appropriate matrices.
For calculation of mean concentrations, the earliest values below the MRC were substituted by MRC ÷ 2, as recommended elswhere. Pharmacokinetic parameters were calculated from mean concentrations using PKSolver, employing non-compartmental analysis for extravascular administration. Curves in figures were fitted using Origin 8.5 (OriginLab, Northampton, MA) using 2-compartment models. Confidence intervals and two-tailed p values (unpaired t test) were calculated using Graphpad Quickcalcs. One outlier was identified using Grubbs' test (p < 0.01) and excluded from the analysis; see Additional file 1.

P-gp (human MDR1) = target: T1, P-gp (human MDR1) (Homo sapiens, UniProt P08183); assay: LLC-PK1-MDR1 cell permeation and efflux; assay type: in vitro ADME
T1 construct: expressed in transfected cells; host or cells: LLC-PK1 (pig kidney epithelial cells) transfected with human MDR1 at Amgen
Description: (§1) Pig kidney epithelial cells (LLC-PK1) were obtained from American Type Culture Collection (Manassas, VA). Transfection with human MDR1 gene was conducted at Amgen (Thousand Oaks, CA). Bi-directional permeation assays were performed as described previously. […] Cells were seeded onto Transwell filter membranes (0.4 μm pore size, surface area = 0.7 cm2) at a density of 200,000 cells/well. Compound incubations (in duplicate) were performed 5 days post-seeding. To determine efflux, compounds were tested at 5 μM in the presence of 0.1% BSA. […] Samples were analyzed by LC-MS-MS.

human P-gp = target: T2, human P-gp (Homo sapiens, UniProt P08183); assay: LLC-PK1-MDR1 cell permeation and efflux; assay type: in vitro ADME; details: cells expressing human P-gp
T2 construct: expressed in transfected cells; host or cells: LLC-PK1 (pig kidney epithelial cells) transfected with human MDR1 at Amgen
Description: as §1

[2] = Plasma binding (unbound fraction by ultracentrifugation); assay type: in vitro ADME; details: 5 μM drug, mean, n = 3
Description: Unbound fractions in brain homogenate and plasma were determined by ultracentrifugation as described previously. Briefly, drug-spiked matrices (5 μM drug in plasma or brain homogenate) were centrifuged at 600,000 g for 5 h at 37 °C (plasma) or 5 °C (brain). Aliquots of the middle (water) layer were added to an equal volume of blank matrix and extracted with 5 volumes of acetonitrile containing internal standard. Aliquots of the original spiked matrix were mixed with an equal volume of blank matrix and 2 volumes of plasma ultrafiltrate (plasma) or phosphate-buffered saline (tissue) and extracted with 10 volumes of acetonitrile. Extracts were centrifuged and analyzed by LC-MS-MS. Fraction unbound was calculated from the ratio of concentration in the water layer to that in the original spiked matrix, corrected for dilution as described previously.

mice = assay: Fatalities and behavioral effects after i.p. administration
Description: Experiments were performed between 10 am and 6 pm. Mice were not used in other experiments, or exposed to other drugs, before testing began.
Doses are reported by weight of the specified salt. Intraperitoneal injections were administered in distilled water vehicle (10 mL kg^-1). Body mass was measured to ±0.1 g. Some values were inadvertently measured on a low-precision balance (± 2.5 g); these timepoints were replicated at ±0.1 g.

[3] = 0.5 h, 10 mg/kg i.p., individual mice
[4] = 1 h, 10 mg/kg i.p., individual mice
[5] = 2 h, 10 mg/kg i.p., individual mice
[6] = male, Swiss-Webster, mouse, ip, plasma NCA, 10 mg/kg i.p.

T1 sequence (P08183 whole entry): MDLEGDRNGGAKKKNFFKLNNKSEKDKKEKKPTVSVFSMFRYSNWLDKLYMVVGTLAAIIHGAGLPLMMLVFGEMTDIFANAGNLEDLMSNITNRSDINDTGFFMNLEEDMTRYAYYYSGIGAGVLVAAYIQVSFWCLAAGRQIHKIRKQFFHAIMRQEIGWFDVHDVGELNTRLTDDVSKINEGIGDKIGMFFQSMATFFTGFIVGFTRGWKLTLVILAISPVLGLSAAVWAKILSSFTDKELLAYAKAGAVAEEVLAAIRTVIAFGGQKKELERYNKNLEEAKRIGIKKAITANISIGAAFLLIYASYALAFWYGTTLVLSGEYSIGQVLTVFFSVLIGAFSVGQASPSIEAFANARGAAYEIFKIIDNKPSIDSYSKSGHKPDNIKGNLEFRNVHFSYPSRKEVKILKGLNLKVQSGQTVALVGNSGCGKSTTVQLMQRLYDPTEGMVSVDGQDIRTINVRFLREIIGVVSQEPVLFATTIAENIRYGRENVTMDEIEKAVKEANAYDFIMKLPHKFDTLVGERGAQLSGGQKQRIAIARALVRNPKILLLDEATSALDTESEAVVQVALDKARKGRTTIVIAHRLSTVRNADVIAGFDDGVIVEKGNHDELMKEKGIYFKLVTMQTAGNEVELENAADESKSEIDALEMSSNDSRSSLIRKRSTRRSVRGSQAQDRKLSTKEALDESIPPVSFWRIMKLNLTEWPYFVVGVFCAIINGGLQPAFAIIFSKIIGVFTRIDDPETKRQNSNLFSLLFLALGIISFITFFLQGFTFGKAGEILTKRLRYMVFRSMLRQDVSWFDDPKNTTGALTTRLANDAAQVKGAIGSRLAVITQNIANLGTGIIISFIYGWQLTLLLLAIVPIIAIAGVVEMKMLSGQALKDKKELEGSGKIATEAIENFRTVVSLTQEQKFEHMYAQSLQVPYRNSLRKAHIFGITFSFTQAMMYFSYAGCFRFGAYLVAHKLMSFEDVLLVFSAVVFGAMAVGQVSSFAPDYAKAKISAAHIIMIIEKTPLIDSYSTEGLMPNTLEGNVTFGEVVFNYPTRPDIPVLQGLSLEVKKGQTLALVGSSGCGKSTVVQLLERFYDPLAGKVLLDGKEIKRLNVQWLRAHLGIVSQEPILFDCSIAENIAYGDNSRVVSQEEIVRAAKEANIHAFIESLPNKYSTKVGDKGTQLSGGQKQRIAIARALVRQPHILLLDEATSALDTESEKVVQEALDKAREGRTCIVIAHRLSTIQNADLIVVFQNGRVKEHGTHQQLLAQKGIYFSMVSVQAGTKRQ
T2 sequence (P08183 whole entry): as above

## N=C(N)Nc1ccc2[nH]c3c(c2c1)C[C@@]1(O)[C@H]2Cc4ccc(O)c5c4[C@@]1(CCN2CC1CC1)[C@H]3O5 [GNTI, 5’-guanidinonaltrindole]
[1]; 10 mg kg^-1 i.p., mice
  Time of maximal mean plasma level: 30 min
[1]; [3]
  [drug],brain (free base equivalent): <120 ng/g
  [drug],plasma (free base equivalent): 3610 ng/mL and 1790 ng/mL and 3840 ng/mL
[1]; [4]
  [drug],brain (free base equivalent): <120 ng/g
  [drug],plasma (free base equivalent): 1750 ng/mL and 2420 ng/mL and 4880 ng/mL
[1]; [5]
  [drug],brain (free base equivalent): <120 ng/g
  [drug],plasma (free base equivalent): 1120 ng/mL and 3700 ng/mL and 2910 ng/mL
[1]; 4 h, 10 mg/kg i.p., individual mice
  [drug],plasma (free base equivalent): 114 ng/mL and 206 ng/mL
[1]; 24 h, 10 mg/kg i.p., individual mice
  [drug],plasma (free base equivalent): <13 ng/mL
[1]; all timepoints, 10 mg kg^-1 i.p.
  Brain levels (below MRC): < 120 ng/mL
[1]; brain, 10 mg kg^-1 i.p., mice
  C max,brain: < 120 ng/mL
[1]; by 24 hours, 10 mg kg^-1 i.p.
  Decline of mean plasma concentration from peak: at least 98%
[1]; male, Swiss-Webster, mouse, brain and plasma (unbound), intraperitoneal, postmortem samples, 13–18 minutes after 39 mg kg^-1 GNTI·2CF3CO2H, read-out: Cmax,brain,u/Cmax,p,u
  Kp uu: < 0.0007
[1]; male, Swiss-Webster, mouse, brain and plasma, intraperitoneal, postmortem samples, 13–18 minutes after 39 mg kg^-1 GNTI·2CF3CO2H, read-out: Cmax,brain/Cmax,p
  Kp: 0.0085
[1]; male, Swiss-Webster, mouse, brain, ip, 0.5 h, 10 mg/kg i.p., individual mice, read-out: [drug],brain (free base equivalent)
  concentration at 0.5 h: < 120 ng/g
[1]; male, Swiss-Webster, mouse, brain, ip, 0.5 h, 10 mg/kg i.p., read-out: mean (brain)
  concentration at 0.5 h: < 120 ng/g
[1]; male, Swiss-Webster, mouse, brain, ip, 1 h, 10 mg/kg i.p., individual mice, read-out: [drug],brain (free base equivalent)
  concentration at 1 h: < 120 ng/g
[1]; male, Swiss-Webster, mouse, brain, ip, 2 h, 10 mg/kg i.p., individual mice, read-out: [drug],brain (free base equivalent)
  concentration at 2 h: < 120 ng/g
[1]; male, Swiss-Webster, mouse, in vivo, ip, ·2HCl salts, 10 mg kg^-1 i.p., mice
  Tmax: 0.5 h
[1]; [6]
  AUC(0-t): 9450 ng·h/mL
  Tmax: 0.5 h
[1]; male, Swiss-Webster, mouse, ip, plasma NCA, 10 mg/kg i.p., read-out: Lambda_z (converted)
  k el: 6.68e-05 s⁻¹
[1]; male, Swiss-Webster, mouse, ip, plasma NCA, 10 mg/kg i.p., read-out: MRT 0-inf_obs
  MRT inf: 2.18 h
[1]; male, Swiss-Webster, mouse, ip, plasma NCA, 10 mg/kg i.p., read-out: t1/2 (converted)
  half-life: 2.88 h
[1]; male, Swiss-Webster, mouse, ip, plasma, 10 mg kg^-1 i.p., mice, read-out: C max,p
  Cmax: 3080 ng/mL
[1]; male, Swiss-Webster, mouse, plasma, intraperitoneal, 0.5 h, read-out: Conc (plasma, NCA input)
  concentration at 0.5 h: 3080 ng/mL
[1]; male, Swiss-Webster, mouse, plasma, intraperitoneal, 1 h, read-out: Conc (plasma, NCA input)
  concentration at 1 h: 3020 ng/mL
[1]; male, Swiss-Webster, mouse, plasma, intraperitoneal, 2 h, read-out: Conc (plasma, NCA input)
  concentration at 2 h: 2580 ng/mL
[1]; male, Swiss-Webster, mouse, plasma, intraperitoneal, 4 h, read-out: Conc (plasma, NCA input)
  concentration at 4 h: 154 ng/mL
[1]; male, Swiss-Webster, mouse, plasma, intraperitoneal, 24 h, read-out: Conc (plasma, NCA input)
  concentration at 24 h: 8.8 ng/mL
[1]; male, Swiss-Webster, mouse, plasma, ip, 0.5 h, 10 mg/kg i.p., read-out: mean (plasma)
  concentration at 0.5 h: 3080 ng/mL
[1]; male, Swiss-Webster, mouse, plasma, ip, 1 h, 10 mg/kg i.p., read-out: mean (plasma)
  concentration at 1 h: 3020 ng/mL
[1]; male, Swiss-Webster, mouse, plasma, ip, 2 h, 10 mg/kg i.p., read-out: mean (plasma)
  concentration at 2 h: 2580 ng/mL
[1]; male, Swiss-Webster, mouse, plasma, ip, 4 h, 10 mg/kg i.p., individual mice, read-out: [drug],plasma (free base equivalent)
  concentration at 4 h: 142 ng/mL
[1]; male, Swiss-Webster, mouse, plasma, ip, 4 h, 10 mg/kg i.p., read-out: mean (plasma)
  concentration at 4 h: 154 ng/mL
[1]; male, Swiss-Webster, mouse, plasma, ip, 24 h, 10 mg/kg i.p., individual mice, read-out: [drug],plasma (free base equivalent)
  concentration at 24 h: 13 ng/mL
[1]; male, Swiss-Webster, mouse, plasma, ip, 24 h, 10 mg/kg i.p., <MRC substituted by MRC/2, read-out: mean (plasma)
  concentration at 24 h: 9 ng/mL
[1]; male, Swiss-Webster, mouse, plasma, ip, plasma NCA, 10 mg/kg i.p., read-out: AUC 0-inf_obs
  AUC(0-inf): 9490 ng·h/mL
[1]; male, Swiss-Webster, mouse, plasma, ip, plasma NCA, 10 mg/kg i.p., read-out: Cl/F_obs (converted)
  CL/F: 17.6 mL/min/kg
[1]; male, Swiss-Webster, mouse, plasma, ip, plasma NCA, 10 mg/kg i.p., read-out: Vz/F_obs
  Vd/F: 4.38 L/kg
[1]; male, Swiss-Webster, mouse, plasma, ip, plasma, 10 mg kg^-1 i.p., non-compartmental analysis, read-out: AUC 0–∞,p
  AUC(0-inf): 9490 ng·h/mL
[1]; male, Swiss-Webster, mouse, plasma, ip, plasma, 10 mg kg^-1 i.p., non-compartmental analysis, read-out: CL/F (converted)
  CL/F: 16.7 mL/min/kg
[1]; male, Swiss-Webster, mouse, plasma, ip, plasma, 10 mg kg^-1 i.p., non-compartmental analysis, read-out: V z /F
  Vd/F: 4.4 L/kg
[1]; plasma NCA, 10 mg/kg i.p.
  AUMC 0-inf_obs: 20681.1 ng/ml*h^2
  Tlag: 0 h
[1]; unbound brain, 10 mg kg^-1 i.p., in vivo brain binding assumed at least 3-fold greater than homogenate
  C max,brain,u: < 6 nM
P-gp (human MDR1); pig (LLC-PK1 cells) transfected with human MDR1, LLC-PK1, apical to basolateral, 5 μM, 0.1% BSA, 120 min, n = 2
  Papp A→B at 120 min, 5 μM: 0.4 ×10⁻⁶ cm/s
P-gp (human MDR1); pig (LLC-PK1 cells) transfected with human MDR1, LLC-PK1, basolateral to apical, 5 μM, 0.1% BSA, 120 min, n = 2
  Papp B→A at 120 min, 5 μM: 0.6 ×10⁻⁶ cm/s
P-gp (human MDR1); pig (LLC-PK1 cells) transfected with human MDR1, LLC-PK1-MDR1 monolayers, read-out: Efflux ratio (B → A/A → B)
  efflux ratio at 120 min, 5 μM: 1.5
Human P-gp
  Active transport / P-gp-mediated efflux: did not; also recorded: No active transport
[2]
  fraction unbound at 5 h, 5 μM: 0.28
mice; 10 mg kg^-1, 15 mice monitored for at least 30 minutes
  Fatalities: no fatalities
mice; 30 mg kg^-1
  Time to death after injection: ≤ 11 min
mice; 30 mg kg^-1, three mice
  Fatalities: all three mice unexpectedly became ataxic, followed by convulsions and death

Reference: article PMC3411462, “Long-acting κ opioid antagonists nor-BNI, GNTI and JDTic: pharmacokinetics in mice and lipophilicity” (BMC Pharmacology, 2012)
